Reference: the NIST ThermoML archive (doi:10.1021/je300873x)

Test: mn = molality of the nth substance listed, in mol/kg
Details: for surface tension liquid-gas: Pendant drop shape; for electrical conductivity: Liquid, Digital conductivity meter

CCCCCCCCCCCCCC[N+](C)(C)CCO.[Br-] [N-tetradecyl-hydroxyethyl-dimethyl ammonium bromide] + O
Details | electrical conductivity [S/m] | surface tension liquid-gas [mN/m]
298.15 K, m1 = 0.0003 | – | 66.02
298.15 K, m1 = 0.0006 | – | 60.97
298.15 K, m1 = 0.00081 | – | 58.35
298.15 K, m1 = 0.00101 | – | 55.52
298.15 K, m1 = 0.00151 | – | 49.52
298.15 K, m1 = 0.00201 | – | 45.03
298.15 K, m1 = 0.00252 | – | 41.15
298.15 K, m1 = 0.00258 | 0.0207 | –
298.15 K, m1 = 0.00268 | 0.0215 | –
298.15 K, m1 = 0.00279 | 0.0223 | –
298.15 K, m1 = 0.00291 | 0.0232 | –
298.15 K, m1 = 0.00302 | – | 38.35
298.15 K, m1 = 0.00303 | 0.0241 | –
298.15 K, m1 = 0.00317 | 0.0251 | –
298.15 K, m1 = 0.00332 | 0.0261 | –
298.15 K, m1 = 0.00349 | 0.027 | –
298.15 K, m1 = 0.00367 | 0.0275 | –
298.15 K, m1 = 0.00388 | 0.028 | –
298.15 K, m1 = 0.00403 | – | 37.57
298.15 K, m1 = 0.00411 | 0.0285 | –
298.15 K, m1 = 0.00436 | 0.029 | –
298.15 K, m1 = 0.00465 | 0.0296 | –
298.15 K, m1 = 0.00499 | 0.0302 | –
298.15 K, m1 = 0.00503 | – | 37.62
298.15 K, m1 = 0.00537 | 0.0309 | –
298.15 K, m1 = 0.00582 | 0.0318 | –
298.15 K, m1 = 0.00604 | – | 37.61
298.15 K, m1 = 0.00635 | 0.0328 | –
298.15 K, m1 = 0.00698 | 0.034 | –
298.15 K, m1 = 0.00806 | – | 37.61
303.15 K, m1 = 0.00258 | 0.0231 | –
303.15 K, m1 = 0.00268 | 0.024 | –
303.15 K, m1 = 0.00279 | 0.0249 | –
303.15 K, m1 = 0.0029 | 0.026 | –
303.15 K, m1 = 0.00303 | 0.0269 | –
303.15 K, m1 = 0.00317 | 0.028 | –
303.15 K, m1 = 0.00332 | 0.0292 | –
303.15 K, m1 = 0.00348 | 0.0303 | –
303.15 K, m1 = 0.00367 | 0.031 | –
303.15 K, m1 = 0.00387 | 0.0316 | –
303.15 K, m1 = 0.0041 | 0.0322 | –
303.15 K, m1 = 0.00436 | 0.0328 | –
303.15 K, m1 = 0.00465 | 0.0335 | –
303.15 K, m1 = 0.00498 | 0.0342 | –
303.15 K, m1 = 0.00536 | 0.035 | –
303.15 K, m1 = 0.00581 | 0.036 | –
303.15 K, m1 = 0.00634 | 0.0372 | –
303.15 K, m1 = 0.00697 | 0.0385 | –
308.15 K, m1 = 0.00258 | 0.0254 | –
308.15 K, m1 = 0.00268 | 0.0263 | –
308.15 K, m1 = 0.00278 | 0.0274 | –
308.15 K, m1 = 0.0029 | 0.0283 | –
308.15 K, m1 = 0.00303 | 0.0295 | –
308.15 K, m1 = 0.00316 | 0.0308 | –
308.15 K, m1 = 0.00331 | 0.0321 | –
308.15 K, m1 = 0.00348 | 0.0334 | –
308.15 K, m1 = 0.00366 | 0.0346 | –
308.15 K, m1 = 0.00387 | 0.0352 | –
308.15 K, m1 = 0.00409 | 0.0359 | –
308.15 K, m1 = 0.00435 | 0.0366 | –
308.15 K, m1 = 0.00464 | 0.0374 | –
308.15 K, m1 = 0.00497 | 0.0383 | –
308.15 K, m1 = 0.00535 | 0.0393 | –
308.15 K, m1 = 0.0058 | 0.0404 | –
308.15 K, m1 = 0.00633 | 0.0418 | –
308.15 K, m1 = 0.00696 | 0.0435 | –
313.15 K, m1 = 0.00257 | 0.0278 | –
313.15 K, m1 = 0.00267 | 0.0287 | –
313.15 K, m1 = 0.00278 | 0.0298 | –
313.15 K, m1 = 0.00289 | 0.0311 | –
313.15 K, m1 = 0.00302 | 0.0325 | –
313.15 K, m1 = 0.00316 | 0.0339 | –
313.15 K, m1 = 0.00331 | 0.0354 | –
313.15 K, m1 = 0.00347 | 0.037 | –
313.15 K, m1 = 0.00366 | 0.0385 | –
313.15 K, m1 = 0.00386 | 0.0395 | –
313.15 K, m1 = 0.00409 | 0.0405 | –
313.15 K, m1 = 0.00434 | 0.0414 | –
313.15 K, m1 = 0.00463 | 0.0421 | –
313.15 K, m1 = 0.00496 | 0.0431 | –
313.15 K, m1 = 0.00534 | 0.0441 | –
313.15 K, m1 = 0.00579 | 0.0455 | –
313.15 K, m1 = 0.00631 | 0.0472 | –
313.15 K, m1 = 0.00695 | 0.0491 | –
318.15 K, m1 = 0.00257 | 0.0307 | –
318.15 K, m1 = 0.00267 | 0.0317 | –
318.15 K, m1 = 0.00277 | 0.0329 | –
318.15 K, m1 = 0.00289 | 0.0343 | –
318.15 K, m1 = 0.00301 | 0.0356 | –
318.15 K, m1 = 0.00315 | 0.037 | –
318.15 K, m1 = 0.0033 | 0.0385 | –
318.15 K, m1 = 0.00347 | 0.0407 | –
318.15 K, m1 = 0.00365 | 0.0426 | –
318.15 K, m1 = 0.00385 | 0.044 | –
318.15 K, m1 = 0.00408 | 0.0454 | –
318.15 K, m1 = 0.00433 | 0.0465 | –
318.15 K, m1 = 0.00462 | 0.0475 | –
318.15 K, m1 = 0.00495 | 0.0488 | –
318.15 K, m1 = 0.00533 | 0.0499 | –
318.15 K, m1 = 0.00578 | 0.0514 | –
318.15 K, m1 = 0.0063 | 0.0531 | –
318.15 K, m1 = 0.00693 | 0.0552 | –
323.15 K, m1 = 0.00256 | 0.0332 | –
323.15 K, m1 = 0.00266 | 0.0345 | –
323.15 K, m1 = 0.00277 | 0.0357 | –
323.15 K, m1 = 0.00288 | 0.0372 | –
323.15 K, m1 = 0.00301 | 0.0389 | –
323.15 K, m1 = 0.00314 | 0.0404 | –
323.15 K, m1 = 0.00329 | 0.0423 | –
323.15 K, m1 = 0.00346 | 0.0442 | –
323.15 K, m1 = 0.00364 | 0.0465 | –
323.15 K, m1 = 0.00384 | 0.0487 | –
323.15 K, m1 = 0.00407 | 0.0506 | –
323.15 K, m1 = 0.00432 | 0.0522 | –
323.15 K, m1 = 0.00461 | 0.0535 | –
323.15 K, m1 = 0.00494 | 0.0547 | –
323.15 K, m1 = 0.00532 | 0.0563 | –
323.15 K, m1 = 0.00576 | 0.0581 | –
323.15 K, m1 = 0.00629 | 0.0598 | –
323.15 K, m1 = 0.00692 | 0.062 | –

O [water] + CCCCCCCCCCCCCC[N+](C)(CCO)CCO.[Br-]
Details | surface tension liquid-gas [mN/m]
298.15 K, m2 = 0 | 72.17
